“And” between values parts separate entries of the source, which are not always exact repeats. Identical values can stand only once.
Tests used:
[1] = Pharmacokinetic Study 1: FMI tablets fasted/fed versus reference IR capsule, crossover, healthy adult volunteers; assay type: in vivo, human; conditions: high fat meal versus fasted, FMI tablets
Protocol: This was an open label, randomized, four-period, incomplete crossover, single center study in healthy adult volunteers. There were 4 treatments in the study: 3 doses of the FMI (given fasting or fed following a high-fat breakfast) and one reference IR capsule (given fed after a typical breakfast). The term “FMI” refers to the dosage form of Example 7 (30 mg FMI) or Example 8 (75 mg FMI).
Each subject was randomized to 1 of 18 treatment sequences, each with 4 treatment periods (Table 27). The first treatment period consisted of 1 of the 3 doses of FMI given fed, and treatment periods 2 to 4 consisted of 1 dose of IR capsule (fed) and 2 of the 3 doses of the FMI given fasted. […] Each subject therefore had 2 fasting treatments with the FMI formulation, 1 fed treatment with the FMI formulation and a reference treatment (IR capsule). Seventy two subjects enrolled and were dosed in the study with 70 completers.
The study consisted of a 28-day screening period, four baseline periods (one before each treatment period), four treatment periods with a wash out period of a minimum of 5 days, followed by a study completion evaluation approximately 72 hours after the last drug administration. Subjects who met the eligibility criteria at screening were admitted to baseline evaluations. All baseline safety evaluation results were available prior to dosing.
For fasted administration, elinogrel was administered in the morning, following an overnight fast of at least 10 hours. Subjects continued to fast until 4 hours post-dose. For fed administration of FMI tablets, elinogrel was administered in the morning, within 30 minutes of a high fat breakfast (approximately 1000 calories). Subjects continued to fast until 4 hours post-dose. For fed administration of the reference (IR capsule), it was administered in the morning, within 30 minutes of a typical breakfast (approximately 500 calories). Subjects continued to fast until 4 hours post-dose.
Subjects were admitted to the study site approximately 12 hours prior to dosing in each period for baseline evaluations. Following a single dose of elinogrel, PK assessments were taken up to 48 hours post dose and safety assessments were made for up to 72 hours.
Subjects were domiciled for 24 hours post dosing for PK sample collection, at which time they were discharged from the study site. Subjects returned on the following 2 mornings for 48 hour PK and 72 hour safety samples. Following the 72 hour safety assessments of treatment period 4 (or in the case of subject discontinuation) subjects underwent study completion evaluations and were discharged from the study. […].
This was a three-period, four-treatment crossover study design with an add-on food effect period (Period 1).
Treatment 1 (T1)=elinogrel 30 mg FMI dose fasting
Treatment 2 (T2)=elinogrel 75 mg FMI dose fasting
Treatment 3 (T3)=elinogrel 150 mg FMI dose fasting
Reference (R)=elinogrel 150 mg IR capsule dose fed (typical breakfast); Example 6 (Reference)
Fed treatment 1 (F1)=elinogrel 30 mg FMI dose fed (high fat breakfast)
Fed treatment 2 (F2)=elinogrel 75 mg FMI dose fed (high fat breakfast)
Fed treatment 3 (F3)=elinogrel 150 mg FMI dose fed (high fat breakfast)
Subjects will received the following treatments in a randomized order: • Treatment (T1, F1) with IR (IR=immediate release) tablet of Example 7 containing pH-modifying alkalizing agent, 30 mg in fasted and fed state. • Treatment (T2, F2) with IR (IR=immediate release) tablet of Example 8 containing pH-modifying alkalizing agent, 75 mg in fasted and fed state • Treatment (R) with 2×IR (IR=immediate release) capsule of Example 6 (Reference): 2×75 mg (150 mg) in fed state. • Treatment (T3, F3) with 2×IR (IR=immediate release) tablet of Example 8 containing pH-modifying alkalizing agent, 2×75 mg (150 mg) in fasted and fed state.
To evaluate the food effect, the geometric mean ratio for PK parameters of the fed versus fasted for each dose level and its 90% CI was estimated as shown in Table 29 below.

[2] = Wettability: contact angle measurement with water on pressed powder; assay type: physicochemical; conditions: potassium salt; for Contact angle: water, in ° (unit assumed)
Protocol: Contact angel instrument: EasyDrop DSA15E (Krüss, Hamburg, Germany)
Syringe: NE44, diameter of needle 0.5 mm (Krüss, Hamburg, Germany)
The powder was pressed (approx 50 mg powder, 3 tons, 2 min) in tablets and analyzed by contact angle measurement. The angel between the solid and the liquid is measured after 0 and up to 60 seconds using water.
All determinations used the above method and the limit for the standards measurements are well within the given limits.

[3] = Relative thermodynamic stability: cross-seeding, suspensions equilibrated, solid analysed by X-ray powder diffraction; assay type: physicochemical
Protocol: The relative thermodynamic stability of the anhydrous form poly-D in comparison with the known Forms A and B of the compound of formula (I) was assessed by cross-seeding experiments, where mixtures of the anhydrous form poly-D and Form A and mixtures of the anhydrous form poly-D and Form B were separately suspended in water, an organic solvent or mixtures of water and organic solvents. The suspension was then equilibrated at various temperatures for several days. The solid parts were then isolated by filtration and analysed by X-ray powder diffraction.

[4] = Comparison of pharmacokinetic effects (AUC, bioavailability) in human studies for polymorphic form B, A and D; assay type: in vivo; conditions: 150 mg dose, polymorphs of the potassium salt, listed as polymorph D, potassium salt
Protocol: Comparison of pharmacokinetic effects in human studies for polymorphic form B, A and D of the potassium salt of elinogrel.
Therefore the polymorphic form does have a strong impact on the bioavailability of the drug.
The bioavailability is measured in a human study according to FDA guidelines for conducting bioavailability studies. The area under the curve (AUC) of elinogrel potassium salt polymorph.

[5] = Saturation solubility, shake-flask with UV quantification; assay type: physicochemical; conditions: listed as The compound of formula (I), form poly-D, potassium salt
Protocol: The FaSSIF and FeSSIF solutions were prepared using Phares SIF powder according to the formulation instructions and the SGF solution was prepared using the guidelines provided. […] The pH and temperature of the supernatant were measured on a SiriusT3 instrument.

CNc1cc2[nH]c(=O)n(-c3ccc(NC(=O)[N-]S(=O)(=O)c4ccc(Cl)s4)cc3)c(=O)c2cc1F.[K+] [Form poly-D]
food effect [1]: significant negative food effect
surface hydrophobilicity from contact angle ([2]; critical angle around 50° (>50° hydrophob <50° hydrophil), listed as polymorph poly-D): hydrophilic
Contact angle ([2]; 0 sec): 55.7 and 78.1 and 53.3
Contact angle ([2]; 10 sec): 27.7 and 33.4 and 28.2
Contact angle ([2]; 20 sec): 16.1 and 21.7 and 22.9
Contact angle ([2]; 30 sec): 20.6
Contact angle ([2]; 60 sec): 15.2
solid form after equilibration (XRPD) ([3]; MeOH, 25° C./4 days): No change
solid form after equilibration (XRPD) ([3]; MeOH, 50° C./3 days): No change
solid form after equilibration (XRPD) ([3]; MeOH/water 1:1 v/v, 25° C./4 days): No change
solid form after equilibration (XRPD) ([3]; MeOH/water 1:1 v/v, 50° C./3 days): No change
solid form after equilibration (XRPD) ([3]; MeOH/water 1:2 v/v, 25° C./4 days): No change
solid form after equilibration (XRPD) ([3]; MeOH/water 1:2 v/v, 50° C./3 days): No change
solid form after equilibration (XRPD) ([3]; MeOH/water 2:1 v/v, 25° C./4 days): No change
solid form after equilibration (XRPD) ([3]; MeOH/water 2:1 v/v, 50° C./3 days): No change
solid form after equilibration (XRPD) ([3]; water, 25° C./4 days): No change
solid form after equilibration (XRPD) ([3]; water, 50° C./3 days): No change
AUC (bioavailability) [4]: 35227 ng·h/mL
Saturation solubility ([5]; FaSSIF pH 6.5-1w, mean N = 2): 166.50 µg/mL
final pH measured of the supernatant ([5]; FaSSIF pH 6.5-1w): 7.00
Saturation solubility ([5]; FeSSIF pH 5.0-1w, mean N = 2): 6.94 µg/mL
final pH measured of the supernatant ([5]; FeSSIF pH 5.0-1w): 5.17
Saturation solubility ([5]; Na Phosphate pH 6.8, mean N = 2): 94.55 µg/mL
final pH measured of the supernatant ([5]; Na Phosphate pH 6.8): 7.08
Saturation solubility ([5]; Na-Acetate pH 4.5, mean N = 2): 0.86 µg/mL
final pH measured of the supernatant ([5]; Na-Acetate pH 4.5): 4.82
Saturation solubility ([5]; SGF pH 2.1, mean N = 2): 46.10 µg/mL
final pH measured of the supernatant ([5]; SGF pH 2.1): 6.34
